From patent US11872324B2, “Materials and methods for tissue regeneration” (The University Court of the University of Glasgow, priority 2015, dated 2024)

Legend:
[1] = test system: Murine embryonic mesenchymal stem cells (mMSCs) C3H10T1/2; experiment: Inhibition of contractility in mMSCs; format: cell-based; conditions: for osteogenic marker expression: mMSCs on all substrates, 20 μM inhibitor; for Staining for pMLC / expression of stemness markers (Sca1, CD29): mMSCs; for Staining for pMLC: 10 and 20 μM inhibitor; for expression of stemness markers (Sca1, CD29): 15 days, basal conditions with inhibitor
VEGFR-2 = VEGFR-2 (Homo sapiens, UniProt P35968)
Method: The most direct way to look at VEGF effect on downstream signaling was to assess its receptor phosphorylation. An immunofluorescence test for presence of phosphorylated VEGFR-2 was performed on standard HUVEC culture on tissue plastics, when cells were stimulated with 25 ng/ml of VEGF for two different time periods (2 min and 30 min). […] Therefore it was decided to assay phosphorylation of one of the downstream effectors, ERK1/2 which is activated via MAPK branch of GF receptor signaling.

ERK1/2 = ERK1/2 phosphorylation ELISA in HUVEC; format: cell-based, human; conditions: 30 min
Method: VEGF bound to substrates was assayed indirectly by measuring remaining VEGF in coating solution with a sandwich ELISA kit according to the manufacturer's instructions (DuoSetDY293B, R&D Systems). Levels of phosphorylation of ERK1/2 in HUVECs seeded onto functionalized surfaces were assessed after 30 min incubation using DuoSet ELISA kit following the manufacturer's instructions (DuoSetDYC1018B, R&D Systems). Human umbilical vein endothelial cells (HUVEC) (Cellworks) were maintained in HLVEC complete media (Cellworks). For any experiment, cells with not higher than 10 population doublings were used (usually corresponding up to P5). For network formation experiments, cell seeding density was optimized, and cells were eventually seeded at 10,000 cells/cm^2. Seeding was done on protein-functionalized and control polymer-coated substrates, and cells were left to adhere in a CO2 incubator at 37° C. After 16 h, medium was removed and replaced with fibrinogen solution (20 mg/ml) in HLVEC complete media, containing also 50 U/ml of thrombin and 1.2 mg/ml of aprotinin; to allow complete fibrinogen clotting, samples were placed in CO2 incubator for 1 h. After clotting, fibrin matrix was covered with 0.5 ml HLVEC complete media with 25 ng/ml of VEGF where required, and samples were kept at 37° C. for 6 day period, with media changed every second day.

[2] = molecular target: Fibronectin (FN) from human plasma adsorbed on poly(ethyl acrylate) (PEA), organised into a fibrillar (nano)network (human) (UniProt P02751); experiment: sandwich ELISA of BMP-2 released from FN-coated surfaces
[3] = molecular target: Fibronectin (FN) from human plasma adsorbed on poly(ethyl acrylate) (PEA), organised into a fibrillar (nano)network (human) (UniProt P02751); experiment: ELISA; BMP-2 adsorbed on FN-coated polymer implant tubes
[4] = molecular target: Fibronectin (FN) from human plasma adsorbed on poly(ethyl acrylate) (PEA), organised into a fibrillar (nano)network (human) (UniProt P02751); experiment: ELISA; BMP-2 adsorbed from 5 µg/ml on FN-coated polymer implant tubes
[5] = test system: Human bone marrow mesenchymal stem cells (hMSCs); experiment: Alkaline phosphatase staining of hMSCs; format: cell-based; conditions: 28 days, noggin 50 ng/ml
Method: Human bone marrow mesenchymal stem cells (hMSCs) from Promocell were maintained in basal media (αMEM, 10% FBS, 1% P/S, 1% fungizone, 2 mM L-glutamine, 1 ng/ml FGF-2) at 37° C. with 5% CO2. Cells were seeded onto the materials at 10^4 cells/cm2 using seeding media (DMEM high glucose, 1% P/S, 1% FBS,) and media were changed twice a week. For all cultures the first 2 hours (initial cell adhesion) were in absence of serum and GF. Cells were used at passages P0-P3. Each experiment was performed in triplicate.
Cells were cultured on materials for 28 days. Noggin (50 ng/ml) was added in a set of samples and phosphate deposition was analysed by an Alkaline Phosphatase assay (Sigma, 86C-1KT). Cells were fixed with the fixative solution (citrate-acetone-formaldehide solution) at RT for 30 s. Afterwards, samples were stained with the alkaline-dye mixture and incubated at RT in darkness for 15 min. Samples were counterstained for 2 minutes with neutral red solution and rinsed in tap water.

Sequence of VEGFR-2 (P35968 20-1356): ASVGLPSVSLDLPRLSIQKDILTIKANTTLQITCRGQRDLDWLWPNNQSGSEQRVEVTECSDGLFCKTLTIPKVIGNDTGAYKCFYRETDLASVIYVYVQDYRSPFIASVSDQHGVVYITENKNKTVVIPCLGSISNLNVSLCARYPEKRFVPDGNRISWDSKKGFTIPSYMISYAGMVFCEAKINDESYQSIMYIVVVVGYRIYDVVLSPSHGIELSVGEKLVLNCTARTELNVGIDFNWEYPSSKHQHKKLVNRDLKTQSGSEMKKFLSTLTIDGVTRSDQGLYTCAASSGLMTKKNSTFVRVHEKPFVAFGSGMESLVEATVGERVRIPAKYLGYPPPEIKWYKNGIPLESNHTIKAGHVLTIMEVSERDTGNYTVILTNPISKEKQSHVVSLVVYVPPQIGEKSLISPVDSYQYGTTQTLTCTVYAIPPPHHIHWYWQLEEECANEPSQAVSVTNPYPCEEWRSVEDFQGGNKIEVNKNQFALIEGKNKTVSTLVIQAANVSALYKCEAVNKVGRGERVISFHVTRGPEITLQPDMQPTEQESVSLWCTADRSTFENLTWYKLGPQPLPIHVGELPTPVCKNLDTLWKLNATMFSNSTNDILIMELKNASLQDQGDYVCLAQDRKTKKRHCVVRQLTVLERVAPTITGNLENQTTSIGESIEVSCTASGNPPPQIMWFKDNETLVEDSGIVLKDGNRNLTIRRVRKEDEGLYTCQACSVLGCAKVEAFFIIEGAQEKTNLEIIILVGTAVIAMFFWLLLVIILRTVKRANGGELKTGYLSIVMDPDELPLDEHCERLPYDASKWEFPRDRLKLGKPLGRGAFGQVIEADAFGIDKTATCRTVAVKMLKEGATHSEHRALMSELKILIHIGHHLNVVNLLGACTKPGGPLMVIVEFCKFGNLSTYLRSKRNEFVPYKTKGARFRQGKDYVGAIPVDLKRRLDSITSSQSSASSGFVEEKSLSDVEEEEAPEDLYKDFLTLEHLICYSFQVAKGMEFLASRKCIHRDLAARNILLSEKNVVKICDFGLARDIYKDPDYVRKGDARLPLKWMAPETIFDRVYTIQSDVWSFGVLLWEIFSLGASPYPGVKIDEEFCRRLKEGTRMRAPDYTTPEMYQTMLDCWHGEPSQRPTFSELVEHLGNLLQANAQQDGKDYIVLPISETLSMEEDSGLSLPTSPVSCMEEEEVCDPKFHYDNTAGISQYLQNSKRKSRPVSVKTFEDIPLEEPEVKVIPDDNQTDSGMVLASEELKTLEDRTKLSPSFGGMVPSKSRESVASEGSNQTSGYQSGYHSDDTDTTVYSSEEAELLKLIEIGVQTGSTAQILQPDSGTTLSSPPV

## C[C@@H](N)[C@H]1CC[C@H](C(=O)Nc2ccncc2)CC1 [Y-27632]
[1]
  osteogenic marker expression: greatly reduced
  Staining for pMLC: reduced in a dose-dependent manner
  expression of stemness markers (Sca1, CD29): strongly reduced

## Cc1ccc2c(c1)C(=O)C1(O)CCN(c3ccccc3)C1=N2 (centres unmarked) [blebbistatin]
[1]
  osteogenic marker expression: greatly reduced
  Staining for pMLC: reduced in a dose-dependent manner
  expression of stemness markers (Sca1, CD29): strongly reduced

## VEGF
VEGFR-2
  phosphorylated VEGFR-2 after 2 min: present
  phosphorylated VEGFR-2 after 30 min: no phosphorylation was detected
ERK1/2; PEA samples vs PEA sample without VEGF
  ERK1/2 phosphorylation, VEGF present in the medium: did not show any difference
ERK1/2; vs PEA without bound VEGF
  ERK1/2 phosphorylation, VEGF coated on PEA: higher level

B1: BMP-2 (R&D Systems, 355-BM or 355-BM/CF) (ligand, UniProt P12643 283-396, looked up)
chain: QAKHKQRKRLKSSCKRHPLYVDFSDVGWNDWIVAPPGYHAFYCHGECPFPLADHLNSTNHAIVQTLVNSVNSKIPKACCVPTELSAISMLYLDENEKVVLKNYQDMVVEGCGCR
[2]
  BMP-2 released after 14 days: < 10%
[3]
  amount of BMP-2 on the coated tube: 15 ng
[4]
  surface density: 100 ng/cm^2

B2: noggin: used as BMP-2 inhibitor to prevent activity (50 ng/ml) (protein)
chain: QHYLHIRPAPSDNLPLVDLIEHPDPIFDPKEKDLNETLLRSLLGGHYDPGFMATSPPEDRPGGGGGAAGGAEDLAELDQLLRQRPSGAMPSEIKGLEFSEGLAQGKKQRLSKKLRRKLQMWLWSQTFCPVLYAWNDLGSRFWPRYVKVGSCFSKRSCSVPEGMVCKPSKSVHLTVLRWRCQRRGGQRCGWIPIQYPIISECKCSC
[5]
  PEA driven FN/BMP-2 osteogenic differentiation (ALP): reduced
